Measured values as given in PubChem BioAssay (NCI).
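GI50: concentration for 50% inhibition of growth. The concentration for full growth arrest is given as TGI.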

What was measured:
Experiment in all cases: NCI-60 cell line screen, 384-well format
ACHN renal = test system: ACHN renal
TK-10 renal = test system: TK-10 renal
EKVX NSCLC = test system: EKVX NSCLC
RXF 393 renal = test system: RXF 393 renal
M14 melanoma = test system: M14 melanoma
HT29 colon = test system: HT29 colon
KM12 colon = test system: KM12 colon
MALME-3M melanoma = test system: MALME-3M melanoma
MDA-MB-435 melanoma = test system: MDA-MB-435 melanoma
UACC-257 melanoma = test system: UACC-257 melanoma
SK-OV-3 ovarian = test system: SK-OV-3 ovarian
DU-145 prostate = test system: DU-145 prostate
HCC-2998 colon = test system: HCC-2998 colon
HCT-15 colon = test system: HCT-15 colon
HOP-92 NSCLC = test system: HOP-92 NSCLC
NCI-H226 lung = test system: NCI-H226 lung
HS 578T breast = test system: HS 578T breast
U251 glioblastoma = test system: U251 glioblastoma
NCI-H522 lung = test system: NCI-H522 lung
OVCAR-4 ovarian = test system: OVCAR-4 ovarian
OVCAR-8 ovarian = test system: OVCAR-8 ovarian
PC-3 prostate = test system: PC-3 prostate
COLO 205 colon = test system: COLO 205 colon
HCT-116 colon = test system: HCT-116 colon
SK-MEL-28 melanoma = test system: SK-MEL-28 melanoma
OVCAR-5 ovarian = test system: OVCAR-5 ovarian
SNB-75 CNS = test system: SNB-75 CNS
HOP-62 NSCLC = test system: HOP-62 NSCLC
MOLT-4 leukemia = test system: MOLT-4 leukemia
LOX IMVI melanoma = test system: LOX IMVI melanoma
SN12C renal = test system: SN12C renal
UACC-62 melanoma = test system: UACC-62 melanoma
MDA-MB-468 breast = test system: MDA-MB-468 breast
SNB-19 CNS = test system: SNB-19 CNS
HL-60(TB) leukemia = test system: HL-60(TB) leukemia
CCRF-CEM leukemia = test system: CCRF-CEM leukemia
SF-268 CNS = test system: SF-268 CNS
T-47D breast = test system: T-47D breast
MCF7 breast = test system: MCF7 breast
CAKI-1 renal = test system: CAKI-1 renal
SF-539 CNS = test system: SF-539 CNS
OVCAR-3 ovarian = test system: OVCAR-3 ovarian
NCI-H460 NSCLC = test system: NCI-H460 NSCLC
786-0 renal = test system: 786-0 renal
K-562 leukemia = test system: K-562 leukemia
UO-31 renal = test system: UO-31 renal
A498 renal = test system: A498 renal
NCI-H322M lung = test system: NCI-H322M lung
MDA-MB-231 breast = test system: MDA-MB-231 breast
BT-549 breast = test system: BT-549 breast
SK-MEL-5 melanoma = test system: SK-MEL-5 melanoma
A549 NSCLC = test system: A549 NSCLC
SW-620 colon = test system: SW-620 colon
NCI-H23 lung = test system: NCI-H23 lung
NCI/ADR-RES ovarian = test system: NCI/ADR-RES ovarian
RPMI-8226 leukemia = test system: RPMI-8226 leukemia
SF-295 CNS = test system: SF-295 CNS
IGROV1 ovarian = test system: IGROV1 ovarian

Work on COc1cc(C(=O)N[C@@H]2CCCN(C)C2)ccc1Nc1ncc2c(n1)N(C1CCCC1)CC(C)(C)C(=O)N2C yielded a GI50 (ACHN renal) of 541 nM, a TGI (ACHN renal) of 2230 nM and a GI50 (TK-10 renal) of 1170 nM. The TGI (TK-10 renal) was 4970 nM, the GI50 (EKVX NSCLC) was 119 nM and the TGI (EKVX NSCLC) was 1880 nM. It also gave a GI50 (RXF 393 renal) of 20 nM, a TGI (RXF 393 renal) of 61.4 nM and a GI50 (M14 melanoma) of 27.3 nM. For the same compound, the TGI (M14 melanoma) was 136 nM, the GI50 (HT29 colon) was 21.2 nM and the TGI (HT29 colon) was 68.1 nM. The GI50 (KM12 colon) was 17 nM, the TGI (KM12 colon) was 1050 nM and the GI50 (MALME-3M melanoma) was 45.9 nM. The TGI (MALME-3M melanoma) was 251 nM, the GI50 (MDA-MB-435 melanoma) was 19 nM and the TGI (MDA-MB-435 melanoma) was 40.6 nM. For the same compound, the GI50 (UACC-257 melanoma) was 40.8 nM, the TGI (UACC-257 melanoma) was 612 nM and the GI50 (SK-OV-3 ovarian) was 45.6 nM. It also gave a TGI (SK-OV-3 ovarian) of 1200 nM, a GI50 (DU-145 prostate) of 35.1 nM and a TGI (DU-145 prostate) of 206 nM. It also gave a GI50 (HCC-2998 colon) of 21.8 nM, a TGI (HCC-2998 colon) of 94.2 nM and a GI50 (HCT-15 colon) of 69.6 nM. The TGI (HCT-15 colon) was 334 nM, the GI50 (HOP-92 NSCLC) was 88.1 nM and the TGI (HOP-92 NSCLC) was 989 nM. The GI50 (NCI-H226 lung) was 1620 nM, the TGI (NCI-H226 lung) was 12000 nM and the GI50 (HS 578T breast) was 16.9 nM. For the same compound, the TGI (HS 578T breast) was 89 nM, the GI50 (U251 glioblastoma) was 46.7 nM and the TGI (U251 glioblastoma) was 1440 nM. For the same compound, the GI50 (NCI-H522 lung) was 17.1 nM, the TGI (NCI-H522 lung) was 37.5 nM and the GI50 (OVCAR-4 ovarian) was 1110 nM. It also gave a TGI (OVCAR-4 ovarian) of 2780 nM, a GI50 (OVCAR-8 ovarian) of 22.3 nM and a TGI (OVCAR-8 ovarian) of 53.9 nM. For the same compound, the GI50 (PC-3 prostate) was 62.1 nM, the TGI (PC-3 prostate) was 2620 nM and the GI50 (COLO 205 colon) was 19.5 nM. It also gave a TGI (COLO 205 colon) of 71.4 nM, a GI50 (HCT-116 colon) of 39.4 nM and a TGI (HCT-116 colon) of 705 nM. For the same compound, the GI50 (SK-MEL-28 melanoma) was 128 nM, the TGI (SK-MEL-28 melanoma) was 911 nM and the GI50 (OVCAR-5 ovarian) was 35.9 nM. For the same compound, the TGI (OVCAR-5 ovarian) was 1220 nM, the GI50 (SNB-75 CNS) was 285 nM and the TGI (SNB-75 CNS) was 2610 nM. It also gave a GI50 (HOP-62 NSCLC) of 31.7 nM, a TGI (HOP-62 NSCLC) of 598 nM and a GI50 (MOLT-4 leukemia) of 13.3 nM. It also gave a TGI (MOLT-4 leukemia) of 26.4 nM, a GI50 (LOX IMVI melanoma) of 34.1 nM and a TGI (LOX IMVI melanoma) of 201 nM. It also gave a GI50 (SN12C renal) of 94.2 nM, a TGI (SN12C renal) of 2210 nM and a GI50 (UACC-62 melanoma) of 33.7 nM. For the same compound, the TGI (UACC-62 melanoma) was 252 nM, the TGI (MDA-MB-468 breast) was 16.3 nM and the GI50 (SNB-19 CNS) was 50.1 nM. The TGI (SNB-19 CNS) was 1850 nM, the GI50 (HL-60(TB) leukemia) was 14.3 nM and the TGI (HL-60(TB) leukemia) was 28.3 nM. The TGI (CCRF-CEM leukemia) was 21.3 nM, the GI50 (SF-268 CNS) was 10.5 nM and the TGI (SF-268 CNS) was 47 nM. For the same compound, the GI50 (T-47D breast) was 81.5 nM, the TGI (T-47D breast) was 892 nM and the GI50 (MCF7 breast) was 28.9 nM. The TGI (MCF7 breast) was 1300 nM, the GI50 (CAKI-1 renal) was 395 nM and the TGI (CAKI-1 renal) was 2640 nM. For the same compound, the GI50 (SF-539 CNS) was 36 nM, the TGI (SF-539 CNS) was 267 nM and the GI50 (OVCAR-3 ovarian) was 18.1 nM. The TGI (OVCAR-3 ovarian) was 47.9 nM, the GI50 (NCI-H460 NSCLC) was 21.7 nM and the TGI (NCI-H460 NSCLC) was 47.9 nM. For the same compound, the GI50 ([…]-0 renal) was 63.8 nM, the TGI (786-0 renal) was 1440 nM and the GI50 (K-562 leukemia) was 19.1 nM. It also gave a TGI (K-562 leukemia) of 55.4 nM, a GI50 (UO-31 renal) of 345 nM and a TGI (UO-31 renal) of 1390 nM. For the same compound, the GI50 (A498 renal) was 206 nM, the TGI (A498 renal) was 1850 nM and the GI50 (NCI-H322M lung) was 510 nM. For the same compound, the TGI (NCI-H322M lung) was 3730 nM, the GI50 (MDA-MB-231 breast) was 41.8 nM and the TGI (MDA-MB-231 breast) was 2220 nM. For the same compound, the GI50 (BT-549 breast) was 43.2 nM, the TGI (BT-549 breast) was 309 nM and the GI50 (SK-MEL-5 melanoma) was 25.3 nM. It also gave a TGI (SK-MEL-5 melanoma) of 133 nM, a GI50 (A549 NSCLC) of 38.7 nM and a TGI (A549 NSCLC) of 1090 nM. It also gave a GI50 (SW-620 colon) of 20.5 nM, a TGI (SW-620 colon) of 114 nM and a GI50 (NCI-H23 lung) of 17.6 nM. For the same compound, the TGI (NCI-H23 lung) was 52.6 nM, the GI50 (NCI/ADR-RES ovarian) was 695 nM and the TGI (NCI/ADR-RES ovarian) was 2340 nM. It also gave a GI50 (RPMI-8226 leukemia) of 31.6 nM, a TGI (RPMI-8226 leukemia) of 101 nM and a GI50 (SF-295 CNS) of 38.6 nM. The TGI (SF-295 CNS) was 196 nM, the GI50 (IGROV1 ovarian) was 45.7 nM and the TGI (IGROV1 ovarian) was 1670 nM.
